From patent US9199989B2, “N—(imidazolidin-2-ylidene)quinoline derivatives as modulators of alpha 2 adrenergic receptors” (Allergan, Inc., priority 2011, dated 2015)

Biological target: T1, Alpha 2C adrenergic receptor (Homo sapiens, UniProt P18825)
T1 construct: expressed in transfected cells
T1 sequence (P18825 1-462): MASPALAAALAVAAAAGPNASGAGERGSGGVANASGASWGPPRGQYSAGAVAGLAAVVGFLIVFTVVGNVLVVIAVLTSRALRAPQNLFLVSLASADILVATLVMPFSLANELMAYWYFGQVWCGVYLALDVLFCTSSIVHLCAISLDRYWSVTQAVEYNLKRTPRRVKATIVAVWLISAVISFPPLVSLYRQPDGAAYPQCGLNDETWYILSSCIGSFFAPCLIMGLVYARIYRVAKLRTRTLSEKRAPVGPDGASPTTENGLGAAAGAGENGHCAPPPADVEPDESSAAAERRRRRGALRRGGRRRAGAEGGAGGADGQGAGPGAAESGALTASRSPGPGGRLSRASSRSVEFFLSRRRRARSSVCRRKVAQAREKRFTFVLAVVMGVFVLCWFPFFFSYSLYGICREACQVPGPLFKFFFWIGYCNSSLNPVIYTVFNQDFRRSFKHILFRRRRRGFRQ
Experiment: RSAT (Receptor Selection and Amplification Technology) compound screening
Format: cell-based
Conditions: for EC50: cells expressing the alpha 2C adrenergic receptor, receptor-mediated growth response, read-out: Intrinsic Activity EC50, Alpha 2C; for Intrinsic Activity (efficacy), Alpha 2C: relative efficacy compared to a standard full agonist
Method: Cells expressing each of the alpha 2 adrenergic receptors alone were incubated with the various compounds and a receptor-mediated growth response was measured. The compound's activity was expressed as its relative efficacy compared to a standard full agonist (see Table 2).

| SMILES | EC50 | Intrinsic Activity (efficacy), Alpha 2C |
| --- | --- | --- |
| Clc1c(N=C2NCCN2)cnc2cccnc12 [Compound 2, 4-Chloro-N-(imidazolidin-2-ylidene)-1,5-naphthyridin-3-amine] | 21 nM | (0.95) |
| Clc1c(N=C2NCCN2)cnc2ccccc12 [Compound 4, 4-Chloro-N-(imidazolidin-2-ylidene)quinolin-3-amine] | 368 nM | (0.66) |
| Brc1c(N=C2NCCN2)cnc2ccccc12 [Compound 5, 4-Bromo-N-(imidazolidin-2-ylidene)quinolin-3-amine] | 1530 nM | (0.17) |
| Cc1c(N=C2NCCN2)cnc2nccnc12 [Compound 7, N-(imidazolidin-2-ylidene)-8-methylpyrido[2,3-b]pyrazin-7-amine] | 311 nM | (0.93) |
| c1cnc2ncc(N=C3NCCN3)cc2n1 [Compound 6, N-(imidazolidin-2-ylidene)pyrido[2,3-b]pyrazin-7-amine] | 4580 nM | (0.44) |
| Cc1c(N=C2NCCN2)cnc2ccccc12 [Compound 3, N-(imidazolidin-2-ylidene)-4-methylquinolin-3-amine] | 1650 nM | (0.21) |
| c1ccc2c(N=C3NCCN3)ccnc2c1 [Compound 1, N-(imidazolidin-2-ylidene)quinolin-4-amine] | 17.4 nM | (0.95) |
